# According to US20030207830A1, “Mutant NDP kinases for antiviral nucleotide analog activation and therapeutic uses thereof” (priority 2002, published 2003):
# Residue numbers refer to the chain shown, from its start. In names and notes the source's numbering stands.
# B1: N119S: Dd NDP kinase mutated at position 119, asparagine to serine; SEQ ID NO: 1 (protein, UniProt P22887 1-155, looked up, variant N119S)
# Nucleoside diphosphate …: MSTNKVNKERTFLAVKPDGVARGLVGEIIARYEKKGFVLVGLKQLVPTKDLAESHYAEHKERPFFGGLVSFITSGPVVAMVFEGKGVVASARLMIGVTNPLASAPGSIRGDFGVDVGRSIIHGSDSVESANREIALWFKPEELLTEVKPNPNLYE
# Assays:
# [1] = system: E. coli BL21 (DE3) cells transformed with pJC20; assay: AZT sensitivity of E. coli transformed with plasmid without insertion; format: cell-based; settings: versus bacteria expressing NDPK-A, N115S-NDPK-A and L55H-N115S-NDPK-A, range tested
# Procedure: (§12) The cells were grown at 37° C. in exponential phase in minimum medium. They were then complemented with various concentrations of AZT, and turbidity at 600 nm was measured after 4H. Transformation with the vector without insertion served as a control.
# (§13) Wild type and mutated NDP kinases were overexpressed in E. coli cells, and the sensitivity of exponentially growing cells to AZT was assayed after induction of NDP kinase expression by IPTG. The viability was estimated by plating and counting the cells.
# (§14) The sensitivity to AZT of E. coli transformed with NDP kinase expression vectors was evaluated. Bacteriea BL21 (DE3) (Stratagene) were transformed by heat shock with pJC20 vectors (Schaertl, 1998) expressing either the wild type NDPK-A (pJC20-HA), the mutant enzyme N115S (pJC20-N115S), the double mutant enzyme L55H-N115S (pJC20-L55H-N115S), or without insertion (pJC20). Bacteria were grown at 37° C. in M9 liquid medium supplemented with casaminoacids (Dilco ref.) in exponential phase, then 10 μM IPTG was added. After 1 hour, cells were complemented with AZT from 10^−7 mg/mL to 10^−4 mg/mL for 4 hours. One mL of bacteria was plated onto LB agar, incubated overnight at 37° C., and counted.
# [2] = system: E. coli BL21 (DE3) cells expressing L55H-N115S NDPK-A
# Procedure: as §12, §13, §14
# [3] = target: T1, human NDP kinase A (NDPK-A) variant L55H-N115S, SEQ ID NO: 3 (Homo sapiens, UniProt P15531, L55H/N115S); assay: Pre-steady-state phosphotransfer, fluorescence stopped-flow; format: biochemical; settings: substitution of Asn 115 for Ser and Leu 55 for His
# T1 construct: made in house; host or cells: E. coli
# Procedure: (§1) FIG. 3 depicts the catalytic efficiency of NDPK-A and mutants for nucleoside analogs. The rates of phosphorylation of pure recombinant NDP kinases (1 μM) were measured at the pre-steady state in a fluorescence stopped-flow with d4T-TP (10 to 80 μM). The catalytic efficiency (expressed in M^−1s^−1) was determined from the variation of the rate as a function of analog as shown in FIG. 2 (▾, NDPK-A, ♦ L55H, ● N115S, ▪ L55H-N115S).
# (§2) The activity assays were performed at the pre-steady state level.
# (§3) R, the specificity change, is the ratio of the catalytic efficiencies (for analog versus natural nucleotide) of the mutant compared to the wild type enzyme.
# (§4) Wild type human NDPK-A and the mutants were expressed and purified according to Schneider et al., 2000, Mol Pharm. Recombinant wild type and mutant Dd-NDPK were obtained as described (Schneid, 1998a), except for N119Y NDP kinase which was partially purified by Q sepharose FF chromatography. Each protein was characterized by […] electrophoresis. The concentration of 17 kDa subunits of the enzyme was either determined by Bradford assay ([…]) or using an absorbance coefficient of ΔA^280=1.249 for a 1 mg/mL solution of human wild type and N115S NDPK-A, and =0.55 for wild type and mutant N119S, N119T Dd-NDP kinases, respectively.
# (§5) As the diphosphate form of analogs were not always available, the triphosphate analogs were used to study phosphate transfer in reaction as in Scheme I. Experiments were performed with an Hi-Tech DX2 microvolume stopped-flow reaction (Schneider, 1998) at Aexc=296 nm (for Ado derivatives) or […] (for other nucleotides), 2 mm excitation slit and a 320 nm cutoff filter at the emission. After mixing NDPK (1 μM) and NTP or an analogTP (10-500 μM), the intrinsic protein fluorescence was recorded for 10-200 sec. In each experiment, 400 pairs of data were recorded, and the data from 3-4 identical experiments were averaged and fitted to a number of non-linear analytical equations using the software provided by Hi-Tech.
# (§6) The data were analyzed using the reaction scheme: [drawing 1]
# (§7) In both the forward and the reverse reactions, the product concentration remains very low, thus the product binding can be neglected, and the observed single step could be attributed to the phosphotransfer (Schneider, 1998). The rate of this observed single step is: [formula]
# and reaches a limiting value (k+2) at NTP saturation. […] Therefore, catalytic efficiencies of phosphorylation (CEphos=k+2/(k−1/k+1)=k+2/KS) were measured, which are equivalent to second order constants and allow a reliable comparison of a variety of NDP kinase substrates.
# [4] = target: T2, phosphorylated Dictyostelium N119S NDP kinase (Dictyostelium discoideum, UniProt P22887, N119S); assay: Stopped-flow kinetics of phosphorylated enzyme with Acy-DP, N119S; format: biochemical
# T2 construct: made in house
# Procedure: (§8) (A) Kinetics of reaction of phosphorylated Dictyostelium wild type and N119S NDP kinases by 100 μM Acyclovir diphosphate (Acy-DP). The phosphorylated enzyme was prepared with a stoichiometry #1 as described (Deville-Bonne 1996). The kinases were preincubated with ATP in excess in buffer T (50 mM Tris-HCl, pH 7.5, 5 mM MgCl2 and 75 mM KCl). The increase in fluorescence upon mixing the phospho-enzyme (1 μM, final concentration) with Acy-DP in buffer T at 20° C. was monitored with a stopped-flow. The solid lines represent the best fit of each curve to a monoexponential.
# (§9) (B) Concentration dependence of the rate constant on Acy-DP concentation. The pseudo-first order rate constant for the reaction (kobs) was plotted against Acy-DP.
# Acyclovir is an acyclic nucleoside analog of Gua used against Herpes Simplex Virus.
# [5] = target: T3, Dictyostelium discoideum NDP kinase (Dd-NDPK) variant N119S, SEQ ID NO: 1 (Dictyostelium discoideum, UniProt P22887, N119S); assay: Pre-steady-state phosphotransfer, fluorescence stopped-flow; format: biochemical
# T3 construct: made in house
# Procedure: as §8, §9
# All numbers in italics have already been published (Schneider, 1998, 2000) The kinetic constants were measured at the pre-steady-state level using a fluorescence stopped-flow device. The binding constants were determined at equilibrium by recording the increase in fluorescence (Schneider, 2000). Values are the average of three independent determinations.
# as §4
# as §5, with “Hi-Tech. All curves fitted to single exponentials.” for “Hi-Tech.”
# as §6, §7
# and reaches a limiting value (k+2) at NTP saturation. Saturation could not be obtained with the concentrations of any NTP used here. Therefore, catalytic efficiencies of phosphorylation (CEphos=k+2/(k−1/k+1)=k+2/KS) were measured, which are equivalent to second order constants and allow a reliable comparison of a variety of NDP kinase substrates.
# [6] = target: T4, phosphorylated Dictyostelium wild type NDP kinase (Dictyostelium discoideum, UniProt P22887); assay: Stopped-flow kinetics of phosphorylated enzyme with Acy-DP, wild type; format: biochemical; settings: phospho-enzyme 1 μM, buffer T, 20° C.
# T4 construct: made in house
# T4 sequence (P22887 1-155): B1 Nucleoside diphosphate … with S119N
# Procedure: as §8, §9
# [7] = target: T5, Dictyostelium discoideum NDP kinase (Dd-NDPK) variant N119T (Dictyostelium discoideum, UniProt P22887, N119T); assay: Steady-state kinetics with ATP and dTDP, coupled enzymes; reactivity for analogs; format: biochemical; settings: dTDP
# T5 construct: made in house
# Procedure: (§10) First, by site-directed mutagenesis, a limited set of amino acid substitutions (Ser, Thr, or Tyr) at the position of Asn 119 were introduced into the active site of Dd-NDPK. The three mutant proteins were expressed and purified to homogeneity, except N119Y, which was found unstable and poorly active (0.05% of wild type activity).
# (§11) The activity of NDP kinase was measured at 20° C. with ATP and dTDP as substrates using coupled enzymes (pyruvate kinase and lactate dehydrogenase) (Lascu 1993). One unit is the amount of enzyme that catalyzes the phosphotransfer of 1 μmol/min under standard conditions: [ATP]=1 mM, [dTDP]=0.2 mM. Rate constants (kcat) and Michaelis constants (Km) were determined from initial velocities for two different constant ratios of nucleotide [dTDP]/[ATP]=0.05 0.1 with [ATP] varying from 0.2 to 2 mM. kcat is expressed by enzyme subunit. The ratio of the ^apparentkcat/^apparentKM at a given concentration of the other substrate is equal to the true value of kcat/KM for a ping-pong enzyme.
# [8] = target: T3, Dictyostelium discoideum NDP kinase (Dd-NDPK) variant N119S, SEQ ID NO: 1; assay: Steady-state kinetics with ATP and dTDP, coupled enzymes; format: biochemical; settings: dTDP
# Procedure: as §10, §11
# [9] = Human NDPK-A mutants, summary over several nucleotide analogs compared to natural nucleotides; format: biochemical
# Procedure: as §2, §3
# The mutants described so far show altered specificity for antiviral drugs and natural nucleotides. Such a switch is usually defined as R, the specificity change, reflecting the ability of a mutant enzyme to prefer the analog rather than the natural nucleotide according to the expression: [formula]
# where R is the ratio of the specificity factors of the mutant compared to the original enzyme, with the specificity factor of an enzyme being defined as the ratio of the catalytic efficiencies (CE=k2/KS) for a nucleotide analog and the natural nucleotide.
# [10] = Steady-state NDP kinase activity, coupled enzymes (pyruvate kinase, lactate dehydrogenase); format: biochemical; settings: for specific activity: standard conditions: [ATP]=1 mM, [dTDP]=0.2 mM, 20° C.
# Procedure: as §11
# [11] = Pre-steady-state phosphotransfer of human NDPK-A and mutants with d4T-TP; format: biochemical; settings: ratio of catalytic efficiencies
# Procedure: as §1
# The intrinsic fluorescence properties of the three mutants were not affected by the mutations and were quenched upon phosphorylation of the catalytic His, as observed with wild type NDP kinase (Deville-Bonne, 1996). […]
# as §5, with “Hi-Tech. […]” for “Hi-Tech.”
# [12] = Reactivity of Dd-NDPK Asn 119 mutants for nucleotide analogs; format: biochemical; settings: Dd-NDPK mutant versus wild type
# From the text: as §10
# [13] = identical concentrations of Acy-DP
# T5 sequence (P22887 whole entry N119T): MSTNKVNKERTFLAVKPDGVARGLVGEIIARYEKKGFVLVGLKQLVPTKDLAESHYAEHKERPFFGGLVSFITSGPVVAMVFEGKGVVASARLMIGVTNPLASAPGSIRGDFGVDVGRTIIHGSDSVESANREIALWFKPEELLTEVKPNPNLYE
# T1 sequence (P15531 whole entry L55H/N115S): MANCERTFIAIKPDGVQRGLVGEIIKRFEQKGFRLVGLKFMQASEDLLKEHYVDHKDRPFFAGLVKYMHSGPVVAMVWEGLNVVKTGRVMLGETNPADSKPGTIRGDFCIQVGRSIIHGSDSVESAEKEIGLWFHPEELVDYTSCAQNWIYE
molecule,measurement,setting,value
Cc1cn([C@H]2C[C@H](N=[N+]=[N-])[C@@H](CO)O2)c(=O)[nH]c1=O [AZT],sensitivity to AZT,[1],less sensitive to AZT
same,viable cells,"[2]; AZT 5 and 10 ng/ml, double mutant versus wild type enzyme or N115S mutant",fewer viable cells
same,sensitization to AZT,[2]; E. coli transfected with the double mutant enzyme,increased sensitization to AZT
same,enhancement of ability to phosphorylate,[3],200-300 times
"Nc1nc2c(ncn2COCCOP(=O)(O)OP(=O)(O)O)c(=O)[nH]1 [Acy-DP, Acyclovir diphosphate]",times faster phosphorylation by N119S NDP kinase than wild type enzyme,[4]; [13],seven
same,"apparent second order constant, N119S mutant","[4]; phospho-enzyme 1 μM, buffer T, 20° C.","4,500 M^−1s^−1"
same,improvement of catalytic efficiency of phosphorylation by the mutation,[5]; from [Acy-DP] dependency of kobs,seven fold
same,phosphorylation rate relative to wild type enzyme,[5]; [13],seven times faster
same,"apparent second order constant, wild type NDP kinase",[6],670 M⁻¹ s⁻¹
Cc1cn([C@H]2C[C@H](O)[C@@H](COP(=O)(O)OP(=O)(O)O)O2)c(=O)[nH]c1=O [dTDP],"kcat, times lower than wild type enzyme",[7],three
same,effect on KM,[7]; versus wild type,little effect on KM
same,"kcat, times lower than wild type enzyme",[8],ten times lower
same,effect on KM,[8]; versus wild type,little effect on KM
"L55H-N115S: double mutant human NDPK-A, Leu 55 to His and Asn 115 to Ser; SEQ ID NO: 3",increment in activity with analogs versus NDPK-A,[9]; catalytic efficiencies of Table II,80-100 fold
same,specific activity,[10],240 U/mg
same,times more slowly / fold less reaction with d4T-TP than with dTTP,[11],eight
N115S: human NDPK-A with Asn 115 changed into Ser; SEQ ID NO: 2,"specificity change (R), switch in specificity over analogs","[9]; analog versus natural nucleotide, mutant versus NDPK-A",around 100
same,steady-state activity relative to NDPK-A,[10]; ATP and dTDP,1/10
same,specific activity,[10],140 U/mg
B1,"catalytic constant kcat, times lower than the wild type enzyme","[10]; natural substrates such as dTDP, steady state, Dd-NDPK",ten
same,enzyme reactivity for analogs,[12],improvement
